Assay results from patent US20210254056A1, “IDENTIFICATION AND TARGETED MODULATION OF GENE SIGNALING NETWORKS” (CAMP4 THERAPEUTICS CORPORATION, priority 2017, published 2021).

System: hepatocytes
Test: RNA-seq of hepatocytes treated with Phase III failure compounds
Conditions: hepatocytes
Experimental: RNA-seq was performed to determine the effects of the compounds on hepatocytes.
Significance was determined by the criteria of FPKM≥0.5, a log 2(fold-change)≥1, and a […].

CCC(CC)[C@H](NC(C)=O)[C@@H]1[C@H](O)[C@@H](C(=O)O)C[C@H]1NC(=N)N.O.O.O [peramivir (trihydrate), peramivir]
RNA-seq results: DOLK expression (gene DOLK): 0.33
RNA-seq results, DPM3 expression (gene DPM3): −0.11
RNA-seq results: DPM3 expression (gene DPM3): 0.68
RNA-seq results, DPYD expression (gene DPYD): −0.21
RNA-seq results: DPYD expression (gene DPYD): −0.43
RNA-seq results, DPYS expression (gene DPYS): −0.01
RNA-seq results: DPYS expression (gene DPYS): −0.27
RNA-seq results, EARS2 expression (gene EARS2): 0.04
RNA-seq results: EARS2 expression (gene EARS2): −0.01
RNA-seq results, EDA expression (gene EDA): −0.03
RNA-seq results: EDA expression (gene EDA): 0.3
RNA-seq results, EHHADH expression (gene EHHADH): −0.10
RNA-seq results: EHHADH expression (gene EHHADH): −0.3
RNA-seq results, ELAC2 expression (gene ELAC2): −0.15
RNA-seq results: ELAC2 expression (gene ELAC2): −0.13
RNA-seq results, ENO3 expression (gene ENO3): 0.30
RNA-seq results: ENO3 expression (gene ENO3): −0.12
RNA-seq results, ENPP1 expression (gene ENPP1): −0.28
RNA-seq results: ENPP1 expression (gene ENPP1): −0.21
RNA-seq results, EPG5 expression (gene EPG5): 0.13
RNA-seq results: EPG5 expression (gene EPG5): 0
RNA-seq results, EPHX1 expression (gene EPHX1): −0.26
RNA-seq results: EPHX1 expression (gene EPHX1): 0.16
RNA-seq results, ERCC4 expression (gene ERCC4): −0.23
RNA-seq results: ERCC4 expression (gene ERCC4): −0.18
RNA-seq results, ERCC6 expression (gene ERCC6): 0.05
RNA-seq results: ERCC6 expression (gene ERCC6): −0.09
RNA-seq results, ETFB expression (gene ETFB): 0.23
RNA-seq results: ETFB expression (gene ETFB): 0.14
RNA-seq results, ETHE1 expression (gene ETHE1): 0.31
RNA-seq results: ETHE1 expression (gene ETHE1): 0.31
RNA-seq results, F2 expression (gene F2): 0.11
RNA-seq results: F2 expression (gene F2): 0.31
RNA-seq results, F2RL1 expression (gene F2RL1): −0.53
RNA-seq results: F2RL1 expression (gene F2RL1): 0.01
RNA-seq results, F5 expression (gene F5): −0.08
RNA-seq results: F5 expression (gene F5): −0.44
RNA-seq results, F9 expression (gene F9): −0.53
RNA-seq results: F9 expression (gene F9): −0.17
RNA-seq results, FABP1 expression (gene FABP1): 0.73
RNA-seq results: FABP1 expression (gene FABP1): −0.05
RNA-seq results, FADD expression (gene FADD): −0.14
RNA-seq results: FADD expression (gene FADD): 0.13
RNA-seq results, FAM111A expression (gene FAM111A): −0.08
RNA-seq results: FAM111A expression (gene FAM111A): −0.05
RNA-seq results, FAM111B expression (gene FAM111B): 0.11
RNA-seq results: FAM111B expression (gene FAM111B): −0.44
RNA-seq results, FAN1 expression (gene FAN1): −0.06
RNA-seq results: FAN1 expression (gene FAN1): −0.14
RNA-seq results, FARS2 expression (gene FARS2): −0.22
RNA-seq results: FARS2 expression (gene FARS2): −0.04
RNA-seq results, FASLG expression (gene FASLG): 1.15
RNA-seq results: FASLG expression (gene FASLG): −0.66
RNA-seq results, FGA expression (gene FGA): −0.25
RNA-seq results: FGA expression (gene FGA): −0.37
RNA-seq results, FGD1 expression (gene FGD1): −0.25
RNA-seq results: FGD1 expression (gene FGD1): 0.14
RNA-seq results, FGFR2 expression (gene FGFR2): −0.13
RNA-seq results: FGFR2 expression (gene FGFR2): −0.42
RNA-seq results, FIG4 expression (gene FIG4): −0.30
RNA-seq results: FIG4 expression (gene FIG4): 0.3
RNA-seq results, FIS1 expression (gene FIS1): 0.44
RNA-seq results: FIS1 expression (gene FIS1): 0.25
RNA-seq results, FTCD expression (gene FTCD): 0.58
RNA-seq results: FTCD expression (gene FTCD): 0.43
RNA-seq results, FTH1 expression (gene FTH1): −0.04
RNA-seq results: FTH1 expression (gene FTH1): 0.7
RNA-seq results, FUCA1 expression (gene FUCA1): −0.23
RNA-seq results: FUCA1 expression (gene FUCA1): 0.07
RNA-seq results, FXN expression (gene FXN): −0.69
RNA-seq results: FXN expression (gene FXN): 0.12
RNA-seq results, G6PC3 expression (gene G6PC3): 0.06
RNA-seq results: G6PC3 expression (gene G6PC3): 0.29
RNA-seq results, G6PC expression (gene G6PC): 0.23
RNA-seq results: G6PC expression (gene G6PC): 0.01
RNA-seq results, G6PD expression (gene G6PD): 0.08
RNA-seq results: G6PD expression (gene G6PD): 0.59
RNA-seq results, GALK1 expression (gene GALK1): 0.18
RNA-seq results: GALK1 expression (gene GALK1): 0.34
RNA-seq results, GALK2 expression (gene GALK2): −0.13
RNA-seq results: GALK2 expression (gene GALK2): −0.11
RNA-seq results, GALT expression (gene GALT): 0.15
RNA-seq results: GALT expression (gene GALT): 0.26
RNA-seq results, GATA6 expression (gene GATA6): −0.08
RNA-seq results: GATA6 expression (gene GATA6): −0.02
RNA-seq results, GATM expression (gene GATM): −0.37
RNA-seq results: GATM expression (gene GATM): −0.37
RNA-seq results, GBA expression (gene GBA): −0.19
RNA-seq results: GBA expression (gene GBA): 0.27
RNA-seq results, GBE1 expression (gene GBE1): −0.20
RNA-seq results: GBE1 expression (gene GBE1): −0.08
RNA-seq results, GCH1 expression (gene GCH1): −0.27
RNA-seq results: GCH1 expression (gene GCH1): −0.25
RNA-seq results, GCKR expression (gene GCKR): 0.29
RNA-seq results: GCKR expression (gene GCKR): 0.32
RNA-seq results, GCLC expression (gene GCLC): −0.18
RNA-seq results: GCLC expression (gene GCLC): −0.14
RNA-seq results, GGCX expression (gene GGCX): 0.10
RNA-seq results: GGCX expression (gene GGCX): −0.22
RNA-seq results, GHR expression (gene GHR): −0.27
RNA-seq results: GHR expression (gene GHR): −0.6
RNA-seq results, GJB2 expression (gene GJB2): −0.37
RNA-seq results: GJB2 expression (gene GJB2): 0.1
RNA-seq results, GLDC expression (gene GLDC): 0.02
RNA-seq results: GLDC expression (gene GLDC): −0.33
RNA-seq results, GLIS3 expression (gene GLIS3): −0.13
RNA-seq results: GLIS3 expression (gene GLIS3): −0.41
RNA-seq results, GLS2 expression (gene GLS2): −0.24
RNA-seq results: GLS2 expression (gene GLS2): −0.06
RNA-seq results, GLYCTK expression (gene GLYCTK): 0.32
RNA-seq results: GLYCTK expression (gene GLYCTK): 0.43
RNA-seq results, GNE expression (gene GNE): −0.21
RNA-seq results: GNE expression (gene GNE): −0.11
RNA-seq results, GNPTAB expression (gene GNPTAB): −0.49
RNA-seq results: GNPTAB expression (gene GNPTAB): −0.13
RNA-seq results, GOSH expression (gene GOSH): −0.17
RNA-seq results: GOSH expression (gene GOSH): 0.44
RNA-seq results, GPC3 expression (gene GPC3): −0.45
RNA-seq results: GPC3 expression (gene GPC3): 0.06
